# Measured values from patent US20190085404A1, “METHODS OF IDENTIFYING AND TREATING IMMUNE CHECKPOINT INHIBITOR-RESPONSIVE NEOPLASMS AND CELLS, TRANSGENIC ANIMALS AND KITS FOR USE THEREIN” (The Board of Trustees of the Leland Stanford Junior …, priority 2016, published 2019).
# Legend:
# [1] = system: primary human T-ALL cells; test: CD47, PD-L1, CD8 and MYC expression in primary human T-ALL samples; format: cell-based; conditions: 48 h; for CD8 expression / CD47 cell surface expression / PD-L1 cell surface expression: four primary human T-ALL samples, flow cytometry MFI, 10 μM JQ1, 10 μM cisplatin or shRNA
# Procedure: (§1) Hematopoietic tumor cell lines (MYC T-ALL 4188 cells derived from the transgenic mouse model, human P493-6, human T-ALL Jurkat, and human T-ALL CCRF-CEM) were grown in RPMI 1640 supplemented with 10% FBS, 1% penicillin/streptomycin, 50 μM 2-mercaptoethanol at 37° C. in 5% CO2. Solid human tumor cell lines (H1299, SKMEL28), mouse MYC HCC, and human HEPG2 were grown in DMEM supplemented with 10% FBS and 1% penicillin/streptomycin at 37° C. in 5% CO2. To turn off expression of the MYC transgene, cells were treated with 20 ng/mL Dox. Primary human T-ALL cells were obtained from four deidentified patient samples and were cultured as previously described (Bruserud et al. 2003). Briefly, cells were cultured in StemSpan H3000 (StemCell) supplemented with human stem cell factor (50 ng/ml), human IL-7 (20 ng/ml), human IL-3 (20 ng/ml), and human FLT3 ligand (20 ng/ml) (Peprotech). Human cell lines were purchased from ATCC.
# (§2) shRNA-mediated knockdowns were performed with the pLKO.1 lentiviral vector containing either control, CD47, or PD-L1-specific shRNA. shRNA-mediated knockdown of human MYC was performed with the pLKO.1 lentiviral vector containing a scrambled control or MYC shRNA (Sigma). PD-L1 shRNA on a pLKO.1-puro backbone was purchased from Sigma and CD47 shRNA (Sigma) was cloned into a pLKO.1-Hygro backbone (Addgene). The plasmids were transfected into packaging cells and virus-containing medium supernatants were used to infect tumor cells using polybrene methodology. For conditional knockdowns, stable cell lines were generated and the time course following MYC inactivation with 20 ng/mL Dox is indicated. For stable knockdowns, the time course is indicated as the time post-viral infection.
# (§3) All tissues and cells were flash-frozen in liquid nitrogen and stored at −80° C. until RNA preparation. RNA was isolated using the TRIzol Reagent (Invitrogen) according to manufacturer instructions. cDNA was synthesized using SuperScriptIII (ThermoFisher). qPCR was performed using specific primers (Table 51) and the SYBR Green qPCR Kit (Roche) in an Applied Biosystems Real-Time PCR System (Life Technologies) with QuantStudio12K Flex Software. Data was analyzed using the cycle threshold method (normalized to UBC). A minimum of 3 biological and 3 technical replicates were used for all qPCR experiments.
# (§4) Tissues were manually dissociated between microscope slides and strained to remove debris. Lysis buffer (0.15 M NH4Cl, 10 mM KHCO3, 0.1 mM EDTA pH 7.3) was used to remove red blood cells. Cells were washed and resuspended in cold flow cytometry buffer (1% FBS, 0.1% sodium azide in PBS). Staining was performed according to manufacturer instructions with the indicated antibodies (eBioscience). Labeled cells were analyzed on a FACSCalibur (Becton Dickinson), and data was analyzed using FlowJo (Treestar). Each plot is representative of three or more animals. Annexin-V and 7-AAD were used according to manufacturer's protocol (eBioscience).
# FIG. 6A-6B: MYC mRNA levels before and after treatment with shRNA against MYC or treatment with JQ1. MYC mRNA was measured by qPCR in human T-ALL cell lines (A, n=3) and primary human T-ALL (B, n=4) cells following MYC inhibition by shRNA or JQ1 treatment after the indicated number of hours (0-48 h for human T-ALL cell lines, 48 h for primary T-ALL).
# FIG. 9A: CD47 and PD-L1 protein levels in primary human T-ALL tumor samples were quantified by flow cytometry, following 48 h treatment with control scramble shRNA or MYC-targeting shRNA. FIG. 9B: CD47, PD-L1, or CD8 protein levels in primary human T-ALL tumor samples were quantified by flow cytometry MFI, following 48 h treatment with control scramble shRNA or MYC-targeting shRNA, or treatment with 10 μM JQ1 or 10 μM cisplatin (n=4 distinct patient samples). Means±SEM are shown.
# [2] = system: human melanoma cell line SKMEL28; test: CD47 and PD-L1 mRNA and protein in SKMEL28 cells after MYC inactivation; format: cell-based; conditions: 48 hours, 10 μM JQ1 or MYC shRNA knockdown
# Procedure: as §1, §2, §3
# (§5) Tissues were manually dissociated between microscope slides and strained to remove debris. […] Labeled cells were analyzed on a FACSCalibur (Becton Dickinson), and data was analyzed using FlowJo (Treestar). […]
# (§6) FIG. 2A and FIG. 2B: The mRNA and protein levels of MYC, CD47, and PD-L1 in human melanoma SKMEL28 and human NSCLC H1299 cells were determined by qPCR and flow cytometry MFI, respectively, 48 hours after MYC inactivation in vitro. […]
# [3] = system: human T-ALL cell line CCRF-CEM; test: CD47, PD-L1 and MYC expression in CCRF-CEM cells after MYC inhibition; format: cell-based
# Procedure: as §1, with “ATCC. […]” for “ATCC.”
# (§7) All tissues and cells were flash-frozen in liquid nitrogen and stored at −80° C. until RNA preparation. […] Data was analyzed using the cycle threshold method (normalized to UBC). […]
# as §5
# (§8) FIG. 1A: Flow cytometry median fluorescence intensity (MFI) was used to determine the relative cell surface expression of CD47, PD-L1, and other immune proteins following MYC inactivation in MYC T-ALL 4188 cells in vitro (n=3). FIG. 1B: Tumors were harvested from primary MYC-driven lymphomas 0 or 4 days following MYC inactivation. mRNA and protein levels were quantified by qPCR and flow cytometry MFI (n=3 tumors per condition). […] FIG. 1C: CD47 and PD-L1 protein levels in Jurkat and CCRF-CEM cells were quantified by flow cytometry MFI following MYC inhibition by conditional shRNA knockdown or 10 μM JQ1 treatment (n=3 biological replicates). […]
# [4] = system: human T-ALL cell line Jurkat; test: CD47, PD-L1 and MYC expression in Jurkat cells after MYC inhibition; format: cell-based
# Procedure: as §1, with “ATCC. […]” for “ATCC.”
# as §7, §5, §8
# [5] = system: human non-small cell lung cancer (NSCLC) cell line H1299; test: CD47 and PD-L1 mRNA and protein in H1299 cells after MYC inactivation; format: cell-based; conditions: 48 hours, 10 μM JQ1 or MYC shRNA knockdown
# Procedure: as §1, §2, §3, §5, §6
# [6] = system: MYC T-ALL 4188 cells; test: Chemotherapeutic drug treatment of MYC T-ALL cells, surface protein levels by flow cytometry; format: cell-based, mouse; conditions: for CD3 expression / CD8 expression / CD25 expression / CD69 expression / CD47 expression / PD-L1 expression: MYC T-ALL 4188 cells, 10 μM; for CD3 expression / CD8 expression / CD25 expression / CD69 expression: flow cytometry; for CD47 expression / PD-L1 expression: flow cytometry MFI; for tumor cell death: MYC T-ALL cells, 10 μM each
# Procedure: as §1, §4
# FIG. 7A: CD47 and PD-L1 protein levels in MYC T-ALL 4188 cells treated with prednisone, cytoxan, cisplatin, or vincristine (10 μM each) were quantified by flow cytometry MFI. Means±SEM are shown, n=3. FIG. 7B-7E: CD3, CD8, CD25, and CD69 protein levels in MYC T-ALL 4188 cells treated as in FIG. 7A were quantified by flow cytometry. Means±SEM are shown (n=3).
# [7] = system: cells derived from mouse MYC-driven HCC; test: CD47 and PD-L1 protein levels in mouse MYC-driven HCC cells after chemotherapy treatment; format: cell-based; conditions: flow cytometry MFI
# Procedure: as §1, with “Briefly, cells were cultured in StemSpan H3000 (StemCell) supplemented with human stem cell factor (50 ng/ml), human IL-7 (20 ng/ml), human IL-3 (20 ng/ml), and human FLT3 ligand (20 ng/ml) (Peprotech). Human cell lines were purchased from ATCC.” left out
# as §5
# FIG. 8A: CD47 and PD-L1 protein levels in cells derived from mouse MYC-driven HCC, following MYC inactivation or chemotherapy treatment, were quantified by flow cytometry MFI (n=3). FIG. 8B: CD47 and PD-L1 mRNA levels were quantified by qPCR and protein levels were quantified by flow cytometry in primary tumors from mouse MYC-driven HCC, following MYC inactivation (n=3 tumors per condition). […]
# [8] = CCRF-CEM, protein by flow cytometry MFI, conditional shRNA knockdown or 10 μM JQ1
# [9] = human T-ALL cell lines, qPCR, 0-48 h
# [10] = Jurkat, protein by flow cytometry MFI, conditional shRNA knockdown or 10 μM JQ1
structure (smiles),measurement,setting,value
Cc1sc2c(c1C)C(c1ccc(Cl)cc1)=N[C@@H](CC(=O)OC(C)(C)C)c1nnc(C)n1-2 [JQ1],CD8 expression,[1],unaffected
same,CD47 cell surface expression,[1],reduced
same,PD-L1 cell surface expression,[1],reduced
same,expression of MYC mRNA,"[1]; primary human T-ALL cells, qPCR",reduced
same,expression of CD47 protein,[2]; flow cytometry MFI,reduced
same,expression of PD-L1 protein,[2]; flow cytometry MFI,reduced
same,expression of CD47 mRNA,[2]; qPCR,reduced
same,expression of PD-L1 mRNA,[2]; qPCR,reduced
same,expression of CD47,[3]; [8],reduced
same,expression of PD-L1,[3]; [8],reduced
same,expression of MYC mRNA,[3]; [9],reduced
same,expression of CD47,[4]; [10],reduced
same,expression of PD-L1,[4]; [10],reduced
same,expression of MYC mRNA,[4]; [9],reduced
same,expression of CD47 protein,[5]; flow cytometry MFI,reduced
same,expression of PD-L1 protein,[5]; flow cytometry MFI,reduced
same,expression of CD47 mRNA,[5]; qPCR,reduced
same,expression of PD-L1 mRNA,[5]; qPCR,reduced
N.N.[Cl][Pt][Cl] [cisplatin],CD3 expression,[6],no effect
same,CD8 expression,[6],no effect
same,CD25 expression,[6],no effect
same,CD69 expression,[6],no effect
same,CD47 expression,[6],either unaffected or showed increased expression
same,PD-L1 expression,[6],either unaffected or showed increased expression
same,tumor cell death,[6],tumor cell death
same,CD8 expression,[1],unaffected
same,CD47 cell surface expression,[1],increased
same,PD-L1 cell surface expression,[1],increased
same,expression of CD47 protein,[7],unaffected
same,expression of PD-L1 protein,[7],unaffected
O=P1(N(CCCl)CCCl)NCCCO1 (stereo not drawn) [cytoxan],CD3 expression,[6],no effect
same,CD8 expression,[6],no effect
same,CD25 expression,[6],no effect
same,CD69 expression,[6],no effect
same,CD47 expression,[6],either unaffected or showed increased expression
same,PD-L1 expression,[6],either unaffected or showed increased expression
same,tumor cell death,[6],tumor cell death
C[C@]12C=CC(=O)C=C1CC[C@@H]1[C@@H]2C(=O)C[C@@]2(C)[C@H]1CC[C@]2(O)C(=O)CO [prednisone],CD3 expression,[6],no effect
same,CD8 expression,[6],no effect
same,CD25 expression,[6],no effect
same,CD69 expression,[6],no effect
same,CD47 expression,[6],either unaffected or showed increased expression
same,PD-L1 expression,[6],either unaffected or showed increased expression
same,tumor cell death,[6],tumor cell death
CC[C@]1(O)C[C@H]2CN(CCc3c([nH]c4ccccc34)[C@@](C(=O)OC)(c3cc4c(cc3OC)N(C=O)[C@H]3[C@@](O)(C(=O)OC)[C@H](OC(C)=O)[C@]5(CC)C=CCN6CC[C@]43[C@@H]65)C2)C1 [vincristine],CD3 expression,[6],no effect
same,CD8 expression,[6],no effect
same,CD25 expression,[6],no effect
same,CD69 expression,[6],no effect
same,CD47 expression,[6],either unaffected or showed increased expression
same,PD-L1 expression,[6],either unaffected or showed increased expression
same,tumor cell death,[6],tumor cell death
